Results as given in US10934310B2, “Inhibitors of Bruton's tyrosine kinase and method of their use” (JANSSEN PHARMACEUTICA NV, priority 2015, dated 2021).

Target: unphosphorylated-BTK kinase domain (UP-BTK), GST-tagged human BTK (389-659aa) (Homo sapiens (Human), UniProt Q06187)
Test: BTK Kinase Lanthascreen Binding Assay
Conditions: for BTK_I_binding pIC50: pIC50 = negative log of the IC50 in molar; for IC50: read-out: BTK_I_binding pIC50 (converted)
Experimental: BTK Kinase Lanthascreen Binding Assay:
A BTK kinase lanthascreen binding assay monitors compound binding to unphosphorylated-BTK kinase domain (UP-BTK), by competing with a fluorescent labeled tracer. […] Data were analyzed using Xlfit™ version 5.3 from ID Business Solutions (Guildford), Microsoft Excel add-in. pIC50 refers to the negative log of the IC50 in molar.

[1] = compound, 50 nM Tracer 236, 2 nM anti-GST antibody, 60 minutes
[2] = Lanthascreen binding, 60 minutes incubation

unphosphorylated-BTK kinase domain (UP-BTK), GST-tagged human BTK (389-659aa), sequence (Q06187 389-659): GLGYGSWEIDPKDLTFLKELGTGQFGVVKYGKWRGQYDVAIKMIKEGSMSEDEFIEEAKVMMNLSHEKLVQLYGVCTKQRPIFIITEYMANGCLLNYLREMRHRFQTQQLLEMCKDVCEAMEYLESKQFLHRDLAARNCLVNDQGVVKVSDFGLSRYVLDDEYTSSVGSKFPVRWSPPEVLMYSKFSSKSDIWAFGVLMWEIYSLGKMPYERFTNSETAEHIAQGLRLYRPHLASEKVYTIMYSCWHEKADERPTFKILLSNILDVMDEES

Structure (SMILES)	BTK_I_binding pIC50 [1]	BTK_I_binding pIC50 [2]	other results
C=CC(=O)N[C@H]1CCC[C@H]1NC(=O)c1sc2nccc3c2c1NC(=O)N3c1ccc(OC(C)C)cc1C (single isomer, unassigned) [Example 165, N-((1R,2S)-2-Acrylamidocyclopentyl)-5-(*R)-(4-isopropoxy-2-methylphenyl)-4-oxo-4,5-dihydro-3H-1-thia-3,5,8-triazaacenaphthylene-2-carboxamide]	8.30		
C=CC(=O)N[C@H]1CCCC[C@H]1NC(=O)c1sc2nccc3c2c1NC(=O)N3c1ccc(Oc2ccccc2)nc1 [Example 172, N-((1R,2S)-2-Acrylamidocyclohexyl)-4-oxo-5-(6-phenoxypyridin-3-yl)-4,5-dihydro-3H-1-thia-3,5,8-triazaacenaphthylene-2-carboxamide]	8.35		
CC(=O)N[C@@H]1CCC[C@H]1NC(=O)c1sc2nccc3c2c1NC(=O)N3c1ccc(Oc2ccccc2)nc1C (single isomer, unassigned) [Example 358, N-((1R,2R)-2-Acetamidocyclopentyl)-5-(*S)-(2-methyl-6-phenoxypyridin-3-yl)-4-oxo-4,5-dihydro-3H-1-thia-3,5,8-triazaacenaphthylene-2-carboxamide]		6.44	
C=CC(=O)N[C@@H]1CCC[C@H](NC(=O)c2sc3nccc4c3c2NC(=O)N4c2ccc(Oc3ccccc3)nc2C)C1 (single isomer, unassigned) [Example 411, N-((1S,3R)-3-Acrylamidocyclohexyl)-5-(*S)-(2-methyl-6-phenoxypyridin-3-yl)-4-oxo-4,5-dihydro-3H-1-thia-3,5,8-triazaacenaphthylene-2-carboxamide]			IC50: > 1000 nM
C=CC(=O)N[C@H]1CCC[C@H]1NC(=O)c1sc2nccc3c2c1NC(=O)N3c1ccc(Oc2cccc(C)n2)cn1 [Example 479, N-((1R,2S)-2-Acrylamidocyclopentyl)-5-(5-((6-methylpyridin-2-yl)oxy)pyridin-2-yl)-4-oxo-4,5-dihydro-3H-1-thia-3,5,8-triazaacenaphthylene-2-carboxamide]			IC50: 28.8 nM
C=CC(=O)N[C@H]1CCCC[C@H]1NC(=O)c1sc2nccc3c2c1NC(=O)N3c1ccc(OC(C)C)nc1C (single isomer, unassigned) [Example 238, N-((1R,2S)-2-Acrylamidocyclohexyl)-5-(*R)-(6-isopropoxy-2-methylpyridin-3-yl)-4-oxo-4,5-dihydro-3H-1-thia-3,5,8-triazaacenaphthylene-2-carboxamide]	6.95		
C=CC(=O)N[C@H]1CC[C@H](NC(=O)c2sc3nccc4c3c2NC(=O)N4c2cnc(Oc3ccccc3)cc2C)C1 (single isomer, unassigned) [Example 306, N-((1*S,3*S)-3-Acrylamidocyclopentyl)-5-(*S)-(4-methyl-6-phenoxypyridin-3-yl)-4-oxo-4,5-dihydro-3H-1-thia-3,5,8-triazaacenaphthylene-2-carboxamide]		8.04	
C=CC(=O)N[C@H]1CCC[C@H]1NC(=O)c1sc2nccc3c2c1NC(=O)N3c1ccc(O[C@H]2CCOC2)cc1C [Example 383, N-((1R,2S)-2-Acrylamidocyclopentyl)-5-(2-methyl-4-(((S)-tetrahydrofuran-3-yl)oxy)phenyl)-4-oxo-4,5-dihydro-3H-1-thia-3,5,8-triazaacenaphthylene-2-carboxamide]		7.45	
C=CC(=O)N[C@H]1CCC[C@H]1NC(=O)c1sc2nccc3c2c1NC(=O)N3c1cc(-c2ccccc2)ncn1 [Example 167, N-((1R,2S)-2-Acrylamidocyclopentyl)-4-oxo-5-(6-phenylpyrimidin-4-yl)-4,5-dihydro-3H-1-thia-3,5,8-triazaacenaphthylene-2-carboxamide]	8.34		
N[C@@H]1CCC[C@H]1NC(=O)c1sc2nccc3c2c1NC(=O)N3c1ccc(Oc2ccccc2)nc1 [Example 269, N-((1R,2R)-2-Aminocyclopentyl)-4-oxo-5-(6-phenoxypyridin-3-yl)-4,5-dihydro-3H-1-thia-3,5,8-triazaacenaphthylene-2-carboxamide]	6.00		
C=CC(=O)N[C@H]1CCCC[C@H]1NC(=O)c1sc2nccc3c2c1NC(=O)N3c1ccc(OC(C)C)nc1C [Example 211, N-((1R,2S)-2-Acrylamidocyclohexyl)-5-(6-isopropoxy-2-methylpyridin-3-yl)-4-oxo-4,5-dihydro-3H-1-thia-3,5,8-triazaacenaphthylene-2-carboxamide]	6.92		
Cc1cc(Oc2ccccc2)ccc1N1C(=O)Nc2c(C(=O)N[C@H]3CC[C@@H](NC(=O)CN(C)C)C3)sc3nccc1c23 [Example 71, N-((1S,3R)-3-(2-(Dimethylamino)acetamido)cyclopentyl)-5-(2-methyl-4-phenoxyphenyl)-4-oxo-4,5-dihydro-3H-1-thia-3,5,8-triazaacenaphthylene-2-carboxamide]	7.38		
C=CC(=O)N[C@H]1CCC[C@H]1NC(=O)c1sc2nccc3c2c1NC(=O)N3c1cnc(OC2CCCC2)cc1C (single isomer, unassigned) [Example 371, N-((1R,2S)-2-Acrylamidocyclopentyl)-5-(*S)-(6-(cyclopentyloxy)-4-methylpyridin-3-yl)-4-oxo-4,5-dihydro-3H-1-thia-3,5,8-triazaacenaphthylene-2-carboxamide]		8.23	
Cc1cc(Oc2ccccc2)ccc1N1C(=O)Nc2c(C(=O)N[C@@H]3CCCC[C@H]3N(C)C)sc3nccc1c23 [Example 43, N-((1R,2R)-2-(Dimethylamino)cyclohexyl)-5-(2-methyl-4-phenoxyphenyl)-4-oxo-4,5-dihydro-3H-1-thia-3,5,8-triazaacenaphthylene-2-carboxamide]	6.23		
C=CC(=O)N[C@H]1CCC[C@@H]1NC(=O)c1sc2nccc3c2c1NC(=O)N3c1ccc(Oc2ccccc2)cc1C [Example 458, N-((1S,2S)-2-Acrylamidocyclopentyl)-5-(2-methyl-4-phenoxyphenyl)-4-oxo-4,5-dihydro-3H-1-thia-3,5,8-triazaacenaphthylene-2-carboxamide]		7.53	
C=CC(=O)N[C@H]1CCC[C@@H]1NC(=O)c1sc2nccc3c2c1NC(=O)N3c1ccc(Oc2ccccc2)cc1C (single isomer, unassigned) [Example 116, N-((1S,2S)-2-Acrylamidocyclopentyl)-5-(*S)-(2-methyl-4-phenoxyphenyl)-4-oxo-4,5-dihydro-3H-1-thia-3,5,8-triazaacenaphthylene-2-carboxamide]	7.30		
Cc1cc(Oc2ccccc2)ccc1N1C(=O)Nc2c(C(=O)N[C@H]3CCCC[C@@H]3NC=O)sc3nccc1c23 [Example 54, N-((1S,2S)-2-Formamidocyclohexyl)-5-(2-methyl-4-phenoxyphenyl)-4-oxo-4,5-dihydro-3H-1-thia-3,5,8-triazaacenaphthylene-2-carboxamide]	5.90		
Cc1cc(Oc2ccccc2)ccc1N1C(=O)Nc2c(C(=O)N[C@H]3CCC[C@H]3N)sc3nccc1c23 [Example 53, N-((1S,2R)-2-Aminocyclopentyl)-5-(2-methyl-4-phenoxyphenyl)-4-oxo-4,5-dihydro-3H-1-thia-3,5,8-triazaacenaphthylene-2-carboxamide]	5.95		
CC(=O)N[C@H]1CC[C@@H](NC(=O)c2sc3nccc4c3c2NC(=O)N4c2cnc(Oc3ccccc3)cc2C)C1 (single isomer, unassigned) [Example 403, N-((1R,3S)-3-Acetamidocyclopentyl)-5-(*S)-(4-methyl-6-phenoxypyridin-3-yl)-4-oxo-4,5-dihydro-3H-1-thia-3,5,8-triazaacenaphthylene-2-carboxamide]		6.26	
CCC(=O)N[C@H]1CCCC[C@@H]1NC(=O)c1sc2nccc3c2c1NC(=O)N3c1ccc(Oc2ccccc2)cc1C [Example 60, 5-(2-Methyl-4-phenoxyphenyl)-4-oxo-N-((1S,2S)-2-propionamidocyclohexyl)-4,5-dihydro-3H-1-thia-3,5,8-triazaacenaphthylene-2-carboxamide]	5.40		
C=CC(=O)N[C@H]1CCC[C@H]1NC(=O)c1sc2nccc3c2c1NC(=O)N3c1ccc(Oc2ccccn2)cn1 [Example 480, N-((1R,2S)-2-Acrylamidocyclopentyl)-4-oxo-5-(5-(pyridin-2-yloxy)pyridin-2-yl)-4,5-dihydro-3H-1-thia-3,5,8-triazaacenaphthylene-2-carboxamide]		7.59	
N[C@H]1CCCC[C@H]1NC(=O)c1sc2nccc3c2c1NC(=O)N3c1ccc(Oc2ccccc2)c(Cl)c1 [Example 137, N-((1R,2S)-2-Aminocyclohexyl)-5-(3-chloro-4-phenoxyphenyl)-4-oxo-4,5-dihydro-3H-1-thia-3,5,8-triazaacenaphthylene-2-carboxamide]	7.49		
Cc1cc(Oc2ccccc2)ccc1N1C(=O)Nc2c(C(=O)N[C@H]3CCCC[C@H]3N)sc3nccc1c23 [Example 49, N-((1S,2R)-2-Aminocyclohexyl)-5-(2-methyl-4-phenoxyphenyl)-4-oxo-4,5-dihydro-3H-1-thia-3,5,8-triazaacenaphthylene-2-carboxamide]	6.12		
C=CC(=O)N[C@H]1CCC[C@H]1NC(=O)c1sc2nccc3c2c1NC(=O)N3c1ccc(OC2CCOCC2)cc1C (single isomer, unassigned) [Example 347, N-((1R,2S)-2-Acrylamidocyclopentyl)-5-(*R)-(2-methyl-4-((tetrahydro-2H-pyran-4-yl)oxy)phenyl)-4-oxo-4,5-dihydro-3H-1-thia-3,5,8-triazaacenaphthylene-2-carboxamide]		6.06	
Cc1cc(Oc2ccccc2)ccc1N1C(=O)Nc2c(C(=O)N[C@@H]3CCC[C@@H]3N)sc3nccc1c23 [Example 12, N-((1R,2S)-2-Aminocyclopentyl)-5-(2-methyl-4-phenoxyphenyl)-4-oxo-4,5-dihydro-3H-1-thia-3,5,8-triazaacenaphthylene-2-carboxamide]	7.03		
